Columns and labels:
Assay type in all cases: cell-based
[1] = molecular target: T1, hDP/Gqs5 (Homo sapiens, UniProt Q13258); assay: FLIPR calcium signal, DP; settings: HEK-293(EBNA)
T1 construct: expressed in transfected cells
T1 sequence (Q13258 1-359): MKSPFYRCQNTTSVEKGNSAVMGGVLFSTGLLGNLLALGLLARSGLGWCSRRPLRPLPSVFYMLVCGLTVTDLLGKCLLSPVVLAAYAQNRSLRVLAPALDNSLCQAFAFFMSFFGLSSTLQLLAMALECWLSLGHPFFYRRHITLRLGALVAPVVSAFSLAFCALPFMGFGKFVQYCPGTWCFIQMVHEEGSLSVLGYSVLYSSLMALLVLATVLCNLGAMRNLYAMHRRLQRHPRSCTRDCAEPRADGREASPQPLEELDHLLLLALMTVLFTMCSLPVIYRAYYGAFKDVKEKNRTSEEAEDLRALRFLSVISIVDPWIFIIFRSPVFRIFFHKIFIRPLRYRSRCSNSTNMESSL
Description: (§1) HEK-293(EBNA) cells, stably expressing one type or subtype of recombinant human prostaglandin receptors (prostaglandin receptors expressed: hDP/Gqs5; hEP1; hEP2/Gqs5; hEP3A/Gqi5; hEP4/Gqs5; hFP; hIP; hTP), were cultured in 100 mm culture dishes in high-glucose DMEM medium containing 10% fetal bovine serum, 2 mM 1-glutamine, 250 μg/ml geneticin (G418) and 200 μg/ml hygromycin B as selection markers, and 100 units/ml penicillin G, 100 μg/ml streptomycin and 0.25 μg/ml amphotericin B.
(§2) Cells were seeded at a density of 5×10^4 cells per well in Biocoat® Poly-D-lysine-coated black-wall, clear-bottom 96-well plates (Becton-Dickinson) and allowed to attach overnight in an incubator at 37° C. Cells were then washed two times with HBSS-HEPES buffer (Hanks Balanced Salt Solution without bicarbonate and phenol red, 20 mM HEPES, pH 7.4) using a Denley Cellwash plate washer (Labsystems). After 45 minutes of dye-loading in the dark, using the calcium-sensitive dye Fluo-4 AM at a final concentration of 2 μM, plates were washed four times with HBSS-HEPES buffer to remove excess dye leaving 100 μl in each well. Plates were re-equilibrated to 37° C. for a few minutes.
(§3) Cells were excited with an Argon laser at 488 nm, and emission was measured through a 510-570 nm bandwidth emission filter (FLIPR™, Molecular Devices, Sunnyvale, Calif.). Drug solution was added in a 50 μl volume to each well to give the desired final concentration. The peak increase in fluorescence intensity was recorded for each well. On each plate, four wells each served as negative (HBSS-HEPES buffer) and positive controls (standard agonists: BW245C (hDP); PGE2 (HEP1; hEP2/Gqs5; hEP3A/Gqi5; hEP4/Gqs5); PGF2α (hFP); carbacyclin (hIP); U-46619 (hTP), depending on receptor). The peak fluorescence change in each drug-containing well was then expressed relative to the controls.
(§4) Compounds were tested in a high-throughput (HTS) or concentration-response (CoRe) format. In the HTS format, forty-four compounds per plate were examined in duplicates at a concentration of 10^−5 M. To generate concentration-response curves, four compounds per plate were tested in duplicates in a concentration range between 10^−5 and 10^−11 M. The duplicate values were averaged. In either, HTS or CoRe format each compound was tested on at least 3 separate plates using cells from different passages to give an n≧3.

[2] = molecular target: T2, hEP3A/Gqi5 (Homo sapiens, UniProt P43115); assay: FLIPR calcium signal, EP3; settings: HEK-293(EBNA); for EC50: read-out: Ca2+ Signal-EC50 (nM) EP3
T2 construct: expressed in transfected cells
T2 sequence (P43115 1-390): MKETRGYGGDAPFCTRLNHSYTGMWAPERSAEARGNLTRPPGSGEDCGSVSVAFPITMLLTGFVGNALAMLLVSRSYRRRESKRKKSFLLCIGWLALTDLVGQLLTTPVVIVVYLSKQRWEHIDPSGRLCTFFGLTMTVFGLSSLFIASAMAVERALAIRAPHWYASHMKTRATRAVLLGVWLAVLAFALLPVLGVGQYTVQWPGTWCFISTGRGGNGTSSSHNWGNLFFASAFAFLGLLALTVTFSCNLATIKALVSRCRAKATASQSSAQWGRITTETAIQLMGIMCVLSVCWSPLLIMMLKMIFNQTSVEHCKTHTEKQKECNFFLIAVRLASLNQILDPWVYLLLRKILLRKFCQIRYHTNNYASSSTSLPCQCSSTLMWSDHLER
Description: as §1, §2, §3, §4

[3] = molecular target: T3, hIP (Homo sapiens, UniProt P43119); assay: FLIPR calcium signal, IP; settings: HEK-293(EBNA)
T3 construct: expressed in transfected cells
Description: as §1, §2, §3, §4

T3 sequence (P43119 whole entry): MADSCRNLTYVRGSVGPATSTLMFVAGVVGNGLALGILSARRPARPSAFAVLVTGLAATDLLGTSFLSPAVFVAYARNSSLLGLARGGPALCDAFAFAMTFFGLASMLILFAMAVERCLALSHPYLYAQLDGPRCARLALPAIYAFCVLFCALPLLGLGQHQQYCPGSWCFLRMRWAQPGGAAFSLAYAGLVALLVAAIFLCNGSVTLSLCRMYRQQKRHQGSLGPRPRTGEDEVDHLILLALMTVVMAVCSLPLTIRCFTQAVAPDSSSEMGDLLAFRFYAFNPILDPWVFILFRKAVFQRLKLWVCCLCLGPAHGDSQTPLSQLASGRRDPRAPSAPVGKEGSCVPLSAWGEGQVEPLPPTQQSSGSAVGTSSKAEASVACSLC

Ca2+ Signal-EC50 (nM) DP [1]	EC50 [2]	Ca2+ Signal-EC50 (nM) IP [3]	Ca2+ Signal-EC50 (nM) EP3 [2]	EC50 ([3]; read-out: Ca2+ Signal-EC50 (nM) IP)	Structure (SMILES)
not active	–	not active	not active	–	O=C(O)CCC/C=C\C[C@@H]1[C@@H](c2ccc(C(O)CC3CCCCC3)cc2)[C@H](O)C[C@H]1Cl (mixture of isomers) [Entry 17, (Z)-7-{(1R,2S,3R,5R)-5-Chloro-2-[4-(2-cyclohexyl-1-hydroxy-ethyl)-phenyl]-3-hydroxy-cyclopentyl}-hept-5-enoic acid]
not active	5930 nM	not active	–	–	CCCCCCC(O)c1ccc([C@@H]2[C@@H](C/C=C\CCCC(=O)O)[C@H](Cl)C[C@H]2O)cc1 (stereo partly drawn) [Entry 25, (Z)-7-{(1R,2S,3R,5R)-5-Chloro-3-hydroxy-2-[4-(1-hydroxy-heptyl)-phenyl]-cyclopentyl}-hept-5-enoic acid]
not active	4670 nM	not active	–	–	CCCCCC(O)c1ccc([C@@H]2[C@@H](Cc3cccc(CCC(=O)O)c3)[C@H](Cl)C[C@H]2O)cc1 (stereo partly drawn) [Entry 3, 3-(3-{(1R,2S,3R,5R)-5-Chloro-3-hydroxy-2-[4-(1-hydroxy-hexyl)-phenyl]-cyclopentylmethyl}-phenyl)-propionic acid]
not active	–	not active	not active	–	CCCCC(O)c1ccc([C@@H]2[C@@H](C/C=C\CCCC(=O)O)[C@H](Cl)C[C@H]2O)cc1 (mixture of isomers) [Entry 27, (Z)-7-{(1R,2S,3R,5R)-5-Chloro-3-hydroxy-2-[4-(1-hydroxy-pentyl)-phenyl]-cyclopentyl}-hept-5-enoic acid]
not active	456 nM	not active	–	–	CCCCCC(O)c1ccc([C@@H]2[C@@H](C/C=C\CCCC(=O)O)[C@H](Cl)C[C@H]2O)cc1 (mixture of isomers) [Entry 11, (Z)-7-{(1R,2S,3R,5R)-5-Chloro-3-hydroxy-2-[4-(1-hydroxy-hexyl)-phenyl]-cyclopentyl}-hept-5-enoic acid]
not active	23 nM	–	–	2060 nM	CCCCC(O)c1cccc([C@@H]2[C@@H](C/C=C\CCCC(=O)O)[C@H](Cl)C[C@H]2O)c1 (stereo partly drawn) [Entry 30, (Z)-7-{(1R,2S,3R,5R)-5-Chloro-3-hydroxy-2-[3-(1-hydroxy-pentyl)-phenyl]-cyclopentyl}-hept-5-enoic acid]

Further lines, the compound ahead of its results:

Structure (SMILES)	Ca2+ Signal-EC50 (nM) DP [1]	EC50 [2]	Ca2+ Signal-EC50 (nM) IP [3]	Ca2+ Signal-EC50 (nM) EP3 [2]	EC50 ([3]; read-out: Ca2+ Signal-EC50 (nM) IP)
CCCCCC(O)c1ccc([C@@H]2[C@@H](CCCc3ccc(C(=O)O)s3)[C@H](Cl)C[C@H]2O)cc1 (stereo partly drawn) [Entry 2, 5-(3-{(1R,2S,3R,5R)-5-Chloro-3-hydroxy-2-[4-(1-hydroxy-hexyl)-phenyl]-cyclopentyl}-propyl)-thiophene-2-carboxylic acid]	not active	348 nM	not active	–	–
O=C(O)CCCCCC[C@@H]1[C@@H](c2ccc(C(O)CC3CCCCC3)cc2)[C@H](O)C[C@H]1Cl (stereo partly drawn) [Entry 18, 7-{(1R,2S,3R,5R)-5-Chloro-2-[4-(2-cyclohexyl-1-hydroxy-ethyl)-phenyl]-3-hydroxy-cyclopentyl}-heptanoic acid]	not active	–	not active	not active	–
CC(C)(C)CCCC(O)c1ccc([C@@H]2[C@@H](CCCCCCC(=O)O)[C@H](Cl)C[C@H]2O)cc1 (mixture of isomers) [Entry 20, 7-{(1R,2S,3R,5R)-5-Chloro-3-hydroxy-2-[4-(1-hydroxy-5,5-dimethyl-hexyl)-phenyl]-cyclopentyl}-heptanoic acid]	not active	4450 nM	not active	–	–
O=C(O)CCCCCC[C@@H]1[C@@H](c2ccc(C(O)Cc3ccccc3)cc2)[C@H](O)C[C@H]1Cl (stereo partly drawn) [Entry 22, 7-{(1 R,2S,3R,5R)-5-Chloro-3-hydroxy-2-[4-(1-hydroxy-2-phenyl-ethyl)-phenyl]-cyclopentyl}-heptanoic acid]	not active	–	not active	not active	–
CCCCCC(O)c1ccc([C@@H]2[C@@H](CCCc3ncc(C(=O)O)s3)[C@H](Cl)C[C@H]2O)cc1 (stereo partly drawn) [Entry 5, 2-(3-{(1R,2S,3R,5R)-5-Chloro-3-hydroxy-2-[4-(1-hydroxy-hexyl)-phenyl]-cyclopentyl}-propyl)-thiazole-5-carboxylic acid]	not active	–	not active	not active	–

— US7585895B2, “Therapeutic substituted cyclopentanes” (Allergan, Inc., priority 2005, dated 2009)
